Experimental data as given in patent US8283356B2, “2,4- Di(hetero)-arylamino-pyrimidine derivatives as ZAP-70 and/or SYK inhibitors” (Novartis AG, priority 2003, dated 2012).

molecular target: T1, ZAP-70 (Homo sapiens, UniProt P43403); experiment: ZAP-70 kinase assay (time-resolved fluorescence resonance energy transfer); type: biochemical; conditions: 80 nM ZAP-70, 4 μM ATP, LAT-11 peptide substrate
T1 construct: purchased Upstate Biotechnology, Lake Placid, N.Y
T1 sequence (P43403 1-619): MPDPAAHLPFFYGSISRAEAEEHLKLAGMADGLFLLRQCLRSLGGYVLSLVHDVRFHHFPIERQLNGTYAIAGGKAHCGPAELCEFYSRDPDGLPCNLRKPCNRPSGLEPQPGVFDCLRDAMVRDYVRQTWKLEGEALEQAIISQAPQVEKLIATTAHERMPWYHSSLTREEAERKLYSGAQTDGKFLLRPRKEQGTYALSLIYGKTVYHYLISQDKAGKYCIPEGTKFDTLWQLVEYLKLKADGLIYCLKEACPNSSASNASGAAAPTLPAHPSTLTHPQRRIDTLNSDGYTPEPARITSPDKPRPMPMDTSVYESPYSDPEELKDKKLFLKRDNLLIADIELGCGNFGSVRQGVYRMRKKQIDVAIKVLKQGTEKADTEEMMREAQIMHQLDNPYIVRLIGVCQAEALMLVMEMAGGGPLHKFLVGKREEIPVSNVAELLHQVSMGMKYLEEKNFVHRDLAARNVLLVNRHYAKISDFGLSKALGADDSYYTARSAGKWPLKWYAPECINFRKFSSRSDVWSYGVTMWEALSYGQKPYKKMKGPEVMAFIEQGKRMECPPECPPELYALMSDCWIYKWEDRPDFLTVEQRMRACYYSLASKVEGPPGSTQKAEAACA
Experimental: 1. ZAP-70 Cell-Free Kinase Assays
ZAP-70 and Lck (lymphoid T-cell protein tyrosine kinase) are commercially available from Upstate Biotechnology, Lake Placid, N.Y.
ZAP-70 Kinase assay: The activities of the compounds of invention are determined in a homogenous ZAP-70 kinase assay based on time-resolved fluorescence resonance energy transfer. Briefly, 80 nM ZAP-70 are incubated with 80 nM Lck and 4 μM ATP in ZAP-70 kinase buffer (20 mM Tris, pH 7.5, 10 μM Na3VO4, 1 mM DTT, 1 mM MnCl2, 0.01% bovine serum albumin, 0.05% Tween 20) for 1 hour at room temperature in a siliconized polypropylene tube. Then, the selective Lck inhibitor PP2 (4-amino-5-(4-chloro-phenyl)-7-(t-butyl)pyrazolo[3,4-d]pyrimidine; Alexis Biochemicals) is added (final concentration 1.2 μM) and incubated for further 10 min. Ten μl of this solution is mixed with the 10 μl biotinylated peptide LAT-11 (linker for activation of T cell prepared as disclosed in Example 1A of WO 02/12275, the contents of which, particularly with reference to Example 1A, is incorporated herein by reference; 1 μM) as substrate and 20 μl of serial dilutions of inhibitors and incubated for 4 hours at room temperature. The kinase reaction is terminated with 10 μl of a 10 mM EDTA solution in detection buffer (20 mM Tris, pH 7.5, 0.01% bovine serum albumin, 0.05% Tween 20). The detection phase is performed by addition of 50 μl europium (Eu)-labelled anti-phosphotyrosine antibody (e.g. Eu-PT66; final concentration 0.125 nM; Advant/Wallac) and 50 μl streptavidin-allophycocyanine (SA-APC; final concentration 40 nM) in detection buffer. After 1 hour incubation at room temperature fluorescence is measured, e.g., on the Victor2 Multilabel Counter (VVallac) at 665 nm. Background values (low control) are obtained in the absence of test samples and ATP and are subtracted from all values. Signals obtained in the absence of test samples are taken as 100% (high control). The inhibition obtained in the presence of test compounds is calculated as percent inhibition of the high control. The concentration of test compounds resulting in 50% inhibition (IC50) is determined from the dose-response curves.

Point of comparison: `CNc1cc(Nc2nccc(Nc3cccc(OC)c3S(N)(=O)=O)n2)ccc1C` [Example 139, 2-Methoxy-6-[2-(4-methyl-3-methyl-amino-phenylamino)-pyrimidin-4-ylamino]-benzenesulfonamide], IC50 37 nM. Against it:
- COCCNc1cc(Nc2nccc(Nc3ccc4c(c3S(N)(=O)=O)OCCO4)n2)ccc1C [Example 57] — 2.8-fold lower, 13 nM
- NS(=O)(=O)c1c(Nc2ccnc(Nc3ccc4c(c3)NCC4)n2)ccc2c1OCCO2 [Example 144, 6-[2-(2,3-Dihydro-1H-indol-6-ylamino)-pyrimidin-4-ylamino]-2,3-dihydro-benzo[1,4]dioxine-5-sulfonic acid amide] — 1.8-fold lower, 21 nM
- CNc1cc(Nc2nccc(Nc3ccc4c(c3S(N)(=O)=O)OCCO4)n2)ccc1C [Example 140, 6-[2-(4-Methyl-3-methylamino-phenylamino)-pyrimidin-4-ylamino]-2,3-dihydro-benzo[1,4]dioxine-5-sulfonic acid amide] — 3.7-fold lower, 10 nM
- CN1CCN(CCOc2cccc(Nc3nccc(Nc4ccc5c(c4S(N)(=O)=O)OCCO5)n3)c2)CC1 [Example 11] — 2.3-fold lower, 16 nM
- COc1cccc(Nc2ccnc(Nc3ccc4c(c3)NCC4)n2)c1S(N)(=O)=O [Example 141, 2-[2-(2,3-Dihydro-1H-indol-6-ylamino)-pyrimidin-4-ylamino]-6-methoxy-benzenesulfonamide] — 4.9-fold higher, 183 nM
